Measurements published in US20220160842A1, “METHOD OF TREATING INFECTIVE ENDOCARDITIS” (priority 2019, published 2022).
Where a name gives a salt, the structure may show the parent alone.

Assays:
Experiment in all cases: MIC by broth microdilution
S. aureus (MRSA) = type: cell-based, Staphylococcus aureus
Procedure: (§1) Minimal inhibitory concentrations (MICs) of exebacase against staphylococci were determined by broth microdilution (BMD) using a nonstandard antimicrobial susceptibility testing (AST) medium comprised of cation-adjusted Mueller Hinton broth (caMHB) supplemented with horse serum (Sigma Aldrich) and dithiothreitol (DTT; Sigma Aldrich) to final concentrations of 25% and 0.5 mM, respectively. This medium, referred to as caMHB-HSD, is approved for use in exebacase AST by the Clinical and Laboratory Standards Institute (CLSI) (CLSI. 2017, Jan. 16-17. AST Subcommittee Working Group Meetings and Plenary. AST Meeting Files & Resources, clsi.org/education/microbiology/ast/ast-meeting-files-resources/. Additional supplementation with 2.5% lysed red blood cells (Remel™, ThermoFisher) was included for analyses of streptococcal isolates, as recommended by CLSI. See CLSI, 2015. Methods for Dilution Antimicrobial Susceptibility Tests for Bacteria That Grow Aerobically, 10th Edition. Clinical and Laboratory Standards Institute, Wayne, Pa.
(§2) Daptomycin (Sigma Aldrich) and vancomycin hydrochloride (Sigma Aldrich) were tested following the reference BMD method for each. See CLSI. 2015. Methods for Dilution Antimicrobial Susceptibility Tests for Bacteria That Grow Aerobically, 10th Edition. Clinical and Laboratory Standards Institute, Wayne, Pa.

S. aureus (MSSA) = type: cell-based, Staphylococcus aureus
Procedure: as §1, §2

S. lugdunensis = type: cell-based, Staphylococcus lugdunensis
Procedure: as §1, §2

S. haemolyticus = type: cell-based, Staphylococcus haemolyticus
Procedure: as §1, §2

S. capitis = type: cell-based, Staphylococcus capitis
Procedure: as §1, §2

S. warneri = type: cell-based, Staphylococcus warneri
Procedure: as §1, §2

all staphylococci tested = type: cell-based
Procedure: as §2

S. anginosus = type: cell-based, Streptococcus anginosus
Procedure: as §1, §2

S. gordonii = type: cell-based, Streptococcus gordonii
Procedure: as §1, §2

S. mitis = type: cell-based, Streptococcus mitis
Procedure: as §1, §2

S. mutans = type: cell-based, Streptococcus mutans
Procedure: as §1, §2

S. oralis = type: cell-based, Streptococcus oralis
Procedure: as §1, §2

S. salivarius = type: cell-based, Streptococcus salivarius
Procedure: as §1, §2

S. sanguinis = type: cell-based, Streptococcus sanguinis
Procedure: as §1, §2

S. gallolyticus = type: cell-based, Streptococcus gallolyticus
Procedure: as §1, §2

S. pyogenes = type: cell-based, Streptococcus pyogenes
Procedure: as §1, §2

S. agalactiae = type: cell-based, Streptococcus agalactiae
Procedure: as §1, §2

S. dysgalactiae = type: cell-based, Streptococcus dysgalactiae
Procedure: as §1, §2

S. pneumoniae = type: cell-based, Streptococcus pneumoniae
Procedure: as §1, §2

E. faecalis = type: cell-based, Enterococcus faecalis
Procedure: as §1, §2

CN[C@H](CC(C)C)C(=O)N[C@H]1C(=O)N[C@@H](CC(N)=O)C(=O)N[C@H]2C(=O)N[C@H]3C(=O)N[C@H](C(=O)N[C@H](C(=O)O)c4cc(O)cc(O)c4-c4cc3ccc4O)[C@H](O)c3ccc(c(Cl)c3)Oc3cc2cc(c3O[C@@H]2O[C@H](CO)[C@@H](O)[C@H](O)[C@H]2O[C@H]2C[C@](C)(N)[C@H](O)[C@H](C)O2)Oc2ccc(cc2Cl)[C@H]1O [VAN, vancomycin hydrochloride]
MIC Range (S. aureus (MRSA); S. aureus (MRSA), N=74): 1 to 2 µg/mL
MIC50 (S. aureus (MRSA); Staphylococcus aureus, MRSA): 1 µg/mL
MIC90 (S. aureus (MRSA); Staphylococcus aureus, MRSA): 1 µg/mL
MIC Range (S. aureus (MSSA); S. aureus (MSSA), N=73): 0.5 to 1 µg/mL
MIC50 (S. aureus (MSSA); Staphylococcus aureus, MSSA): 1 µg/mL
MIC90 (S. aureus (MSSA); Staphylococcus aureus, MSSA): 1 µg/mL
MIC Range (S. lugdunensis; S. lugdunensis, N=49): 0.5 to 2 µg/mL
MIC50 (S. lugdunensis; Staphylococcus lugdunensis): 1 µg/mL
MIC90 (S. lugdunensis; Staphylococcus lugdunensis): 1 µg/mL
MIC Range (S. haemolyticus; S. haemolyticus, N=36): 0.5 to 4 µg/mL
MIC50 (S. haemolyticus; Staphylococcus haemolyticus): 1 µg/mL
MIC90 (S. haemolyticus; Staphylococcus haemolyticus): 2 µg/mL
MIC Range (S. capitis; S. capitis, N=13): 0.5 to 2 µg/mL
MIC50 (S. capitis; Staphylococcus capitis): 1 µg/mL
MIC90 (S. capitis; Staphylococcus capitis): 1 µg/mL
MIC Range (S. warneri; S. warneri, N=23): 0.25 to 2 µg/mL
MIC50 (S. warneri; Staphylococcus warneri): 1 µg/mL
MIC90 (S. warneri; Staphylococcus warneri): 2 µg/mL
MIC Range (all staphylococci tested): 0.5 to 4 µg/mL
MIC Range (S. anginosus; S. anginosus (viridans), N=10): 0.5 to 1 µg/mL
MIC50 (S. anginosus; Streptococcus anginosus): 0.5 µg/mL
MIC90 (S. anginosus; Streptococcus anginosus): 1 µg/mL
MIC Range (S. gordonii; S. gordonii (viridans), N=11): 0.5 to 1 µg/mL
MIC50 (S. gordonii; Streptococcus gordonii): 0.5 µg/mL
MIC90 (S. gordonii; Streptococcus gordonii): 1 µg/mL
MIC Range (S. mitis; S. mitis (viridans), N=18): 0.25 to 0.5 µg/mL
MIC50 (S. mitis; Streptococcus mitis): 0.5 µg/mL
MIC90 (S. mitis; Streptococcus mitis): 0.5 µg/mL
MIC Range (S. mutans; S. mutans (viridans), N=22): 0.25 to 1 µg/mL
MIC50 (S. mutans; Streptococcus mutans): 1 µg/mL
MIC90 (S. mutans; Streptococcus mutans): 1 µg/mL
MIC Range (S. oralis; S. oralis (viridans), N=15): 0.5 to 1 µg/mL
MIC50 (S. oralis; Streptococcus oralis): 0.5 µg/mL
MIC90 (S. oralis; Streptococcus oralis): 1 µg/mL
MIC Range (S. salivarius; S. salivarius (viridans), N=12): 0.25 to 0.5 µg/mL
MIC50 (S. salivarius; Streptococcus salivarius): 0.5 µg/mL
MIC90 (S. salivarius; Streptococcus salivarius): 0.5 µg/mL
MIC Range (S. sanguinis; S. sanguinis (viridans), N=15): 0.5 to 2 µg/mL
MIC50 (S. sanguinis; Streptococcus sanguinis): 0.5 µg/mL
MIC90 (S. sanguinis; Streptococcus sanguinis): 0.5 µg/mL
MIC Range (S. gallolyticus; S. gallolyticus (bovis), N=19): 0.25 to 0.5 µg/mL
MIC50 (S. gallolyticus; Streptococcus gallolyticus): 0.25 µg/mL
MIC90 (S. gallolyticus; Streptococcus gallolyticus): 0.5 µg/mL
MIC Range (S. pyogenes; S. pyogenes (group A), N=100): 0.25 to 0.5 µg/mL
MIC50 (S. pyogenes; Streptococcus pyogenes): 0.5 µg/mL
MIC90 (S. pyogenes; Streptococcus pyogenes): 0.5 µg/mL
MIC Range (S. agalactiae; S. agalactiae (group B), N=97): 0.25 to 0.5 µg/mL
MIC50 (S. agalactiae; Streptococcus agalactiae): 0.5 µg/mL
MIC90 (S. agalactiae; Streptococcus agalactiae): 0.5 µg/mL
MIC Range (S. dysgalactiae; S. dysgalactiae (group G), N=22): 0.25 to 1 µg/mL
MIC50 (S. dysgalactiae; Streptococcus dysgalactiae): 0.5 µg/mL
MIC90 (S. dysgalactiae; Streptococcus dysgalactiae): 0.5 µg/mL
MIC Range (S. pneumoniae; S. pneumoniae, N=59): 0.25 to 0.5 µg/mL
MIC50 (S. pneumoniae; Streptococcus pneumoniae): 0.25 µg/mL
MIC90 (S. pneumoniae; Streptococcus pneumoniae): 0.5 µg/mL
MIC Range (E. faecalis; E. faecalis (formerly group D), N=18): 0.5 to 2 µg/mL
MIC50 (E. faecalis; Enterococcus faecalis): 1 µg/mL
MIC90 (E. faecalis; Enterococcus faecalis): 2 µg/mL
